Data from ChEMBL document CHEMBL2176959, “Design and synthesis of potent, orally efficacious hydroxyethylamine derived β-site amyloid precursor protein cleaving enzyme (BACE1) inhibitors” (J Med Chem, 2012).

Tests used:
in vitro = details: pig, LLC-PK1
[1] = Oral bioavailability in Sprague-Dawley rat at 10 mg/kg; type: ADME, organism-based; details: in vivo
[2] = Tmax in Sprague-Dawley rat at 10 mg/kg, po; type: ADME, organism-based; set-up: dose 10 mg/kg, route oral; details: in vivo
[3] = Cmax in Sprague-Dawley rat at 10 mg/kg, po; type: ADME, organism-based; set-up: dose 10 mg/kg, route oral; details: in vivo
[4] = AUC (0 to infinity) in Sprague-Dawley rat at 10 mg/kg, po; type: ADME, organism-based; set-up: time infinity, dose 10 mg/kg, route oral; details: plasma
[5] = Volume of distribution at steady state in Sprague-Dawley rat at 2 mg/kg, iv; type: ADME, organism-based; set-up: dose 2 mg/kg, route intravenous; details: in vivo, read-out: Vdss
[6] = Plasma concentration in Sprague-Dawley rat at 30 mg/kg, po at 4 hrs; type: ADME, organism-based; set-up: dose 30 mg/kg, route oral
[7] = Drug uptake in Sprague-Dawley rat CSF at 30 mg/kg, po at 4 hrs; type: ADME, organism-based; set-up: dose 30 mg/kg, route oral; details: cerebrospinal fluid, read-out: Drug uptake

| Papp at 2 h (in vitro) [×10⁻⁶ cm/s] | bioavailability [1] [%] | Tmax [2] [h] | Cmax [3] [ng/mL] | AUC(0-inf) [4] [ng·h/mL] | Vd [5] [L/kg] | concentration at 4 h [6] [nM] | concentration at 4 h [7] [nM] | Structure (SMILES) |
| --- | --- | --- | --- | --- | --- | --- | --- | --- |
| 22 | – | – | – | – | – | – | – | COCC(=O)N[C@@H](Cc1cccc(-c2ccncc2)c1)[C@H](O)CN[C@H]1CC2(CCC2)Oc2ncc(CC(C)(C)C)cc21 |
| 28 | – | – | – | – | – | – | – | COCC(=O)N[C@@H](Cc1ccc(F)c(-c2nccs2)c1)[C@H](O)CN[C@H]1CC2(CCC2)Oc2ncc(CC(C)(C)C)cc21 |
| 11 | – | – | – | – | – | – | – | COCC(=O)N[C@@H](Cc1cc(-c2nccs2)ccc1F)[C@H](O)CN[C@H]1CC2(CCC2)Oc2ncc(CC(C)(C)C)cc21 |
| – | 100 | 5.33 | 4860 | 24200 | 1.54 | 3540 | 78 | C#Cc1cccc(C[C@H](NC(=O)COC)[C@H](O)CN[C@H]2CC3(CCC3)Oc3ncc(CC(C)(C)C)cc32)c1 |
| – | 120 | 3.33 | 1890 | 9030 | 2.19 | 3270 | 52 | COCC(=O)N[C@@H](Cc1cccc(-c2nccs2)c1)[C@H](O)CN[C@H]1CC2(CCC2)Oc2ncc(CC(C)(C)C)cc21 |
